# Results reported in US4304864A, “Long-chain acyl-coenzyme-A synthetase” (Mitsubishi Chemical Industries, Limited, priority 1978, dated 1981).
# Entries after “also recorded” stand apart in the source; their conditions may differ.
# B1: acyl-CoA synthetase from E. coli: prior art enzyme purified from Escherichia coli by D. Samuel et al (protein, UniProt P69451 1-561, looked up)
# Long-chain-fatty-acid--CoA …: MKKVWLNRYPADVPTEINPDRYQSLVDMFEQSVARYADQPAFVNMGEVMTFRKLEERSRAFAAYLQQGLGLKKGDRVALMMPNLLQYPVALFGILRAGMIVVNVNPLYTPRELEHQLNDSGASAIVIVSNFAHTLEKVVDKTAVQHVILTRMGDQLSTAKGTVVNFVVKYIKRLVPKYHLPDAISFRSALHNGYRMQYVKPELVPEDLAFLQYTGGTTGVAKGAMLTHRNMLANLEQVNATYGPLLHPGKELVVTALPLYHIFALTINCLLFIELGGQNLLITNPRDIPGLVKELAKYPFTAITGVNTLFNALLNNKEFQQLDFSSLHLSAGGGMPVQQVVAERWVKLTGQYLLEGYGLTECAPLVSVNPYDIDYHSGSIGLPVPSTEAKLVDDDDNEVPPGQPGELCVKGPQVMLGYWQRPDATDEIIKNGWLHTGDIAVMDEEGFLRIVDRKKDMILVSGFNVYPNEIEDVVMQHPGVQEVAAVGVPSGSSGEAVKIFVVKKDPSLTEESLVTFCRRQLTGYKVPKLVEFRDELPKSNVGKILRRELRDEARGKVDNKA
# What was measured:
# acyl-CoA synthetase [1] = assay: Substrate specificity of acyl-CoA synthetase (fatty acids); format: biochemical, Candida lipolytica; conditions: for Activity (μmol acyl-CoA/min.): fatty acid concentration 0.25 mM
# Description: (§1) The sssay of enzyme activity was carried out by the Banis and Tove method. (See Biochemica et Biophysica Acta, Vol. 348, pages 210-220 (1974)). According to this method, the reaction solution contained 20 μmol of Tris-HCl buffer (pH 7.5), 3 μmol of ATP, 2 μmol of MgCl2, 1.0 μmol of dithiothreitol, 0.2 μmol of [U-^14 C] potassium palmitate (0.2 mCi/mmol), 0.32 μmol of surfactant T, 0.2 μmol of CoA and an aliquot of the enzyme solution in a total volume of 0.2 ml. After a 5 minute preincubation, either the CoA or the enzyme solution which had been kept from incorporating in the reaction solution was added to initiate the reaction (at 25° C.). At the end of a 10 minute reaction period, 2.5 ml of isopropanol-n-heptane-1 M sulfuric acid (40:10:1) was added to stop the reaction. The solution was then extracted with heptane to remove any unreacted free fatty acid. After the aqueous layer was washed twice each with 2 ml of heptane containing 8 mg of palmitic acid, the radioactivity of the aqueous layer was measured.
# (§2) The standard reaction solution contained 100 μmol of Tris-HCl buffer (pH 7.4), 5 μmol of dithiothreitol, 1.6 μmol of surfactant T, 7.5 μmol of ATP, 10 μmol of MgCl2, 0.25 μmol of potassium oleate, 1 μmol of CoA, 0.2 μmol of potassium phosphoenolpyruvate, 0.15 μmol of NADH, 20 μg of myokinase, 30 μg of pyruvate kinase, 30 μg of lactate dehydrogenase and a certain amount of acyl-CoA synthetase per ml of the solution. A reaction solution containing all the above components except CoA was preincubated at 25° C. for one minute. The reaction was then initiated by the addition of CoA, and the rate of decrease in optical density at 340 nm which was attributed to decrease in amount of NADH was determined.
# acyl-CoA synthetase I [2] = assay: Specificity for acyl acceptors (Vmax and apparent Km); format: biochemical, Candida lipolytica; conditions: for utilization as acyl acceptor: at conc. up to 5 mM; for Km / Vmax: acyl acceptor; for Vmax: CoA designated as 100%
# Description: as §1, §2
# The Vmax values and the apparent Km values were as follows: […]
# acyl-CoA synthetase [3] = assay: Substrate specificity of acyl-CoA synthetase (fatty acids); format: biochemical, Candida lipolytica; conditions: fatty acid concentration 0.125 mM
# acyl-CoA synthetase [4] = assay: Activator and inhibitor of the enzyme; format: biochemical, Candida lipolytica
# acyl-CoA synthetase I [5] = assay: Specificity for nucleoside-5'-triphosphate; format: biochemical, Candida lipolytica; conditions: for effectiveness as nucleoside-5'-triphosphate: 7.5 mM and 15 mM
# Description: as §2
# (ii) Specificity for nucleoside-5'-triphosphate: Only ATP and αATP were effective. At concentrations of 7.5 mM and 15 mM, the activities measured with αATP were 78% and 61%, respectively, of those measured with ATP.
# [6] = most purified form, prior art; cited from earlier work
molecule,measurement,setting,value
O=C(O)CCCCCCCCCCCCCCC(=O)O [Hexadecanedioic acid],effectiveness as substrate of the enzyme,acyl-CoA synthetase [1],essentially ineffective
same,Activity (μmol acyl-CoA/min.),acyl-CoA synthetase [1],0.6 μmol acyl-CoA/min.
O[C@H](CS)[C@H](O)CS (racemic) [Dithiothreitol],utilization as acyl acceptor,acyl-CoA synthetase I [2],Not utilized
CCCCCCCCCCCCCC(=O)O [Myristic acid],Activity (μmol acyl-CoA/min.),acyl-CoA synthetase [1],20.8 μmol acyl-CoA/min.
CC(C)(COP(=O)(O)OP(=O)(O)OC[C@H]1O[C@@H](n2cnc3c(N)ncnc32)[C@H](O)[C@@H]1OP(=O)(O)O)[C@@H](O)C(=O)NCCC(=O)NCCS [CoA],Km,acyl-CoA synthetase I [2],42 µM
same,Vmax,acyl-CoA synthetase I [2],100%
CCCCCCCCCCCCCCCCC(=O)O [Heptadecanoic acid],Activity (μmol acyl-CoA/min.),acyl-CoA synthetase [3],22.3 μmol acyl-CoA/min.
O=C(O)CN(CCN(CC(=O)O)CC(=O)O)CC(=O)O [EDTA],activation or inhibition of the enzyme,acyl-CoA synthetase [4],inhibitor; also recorded: inhibits
Nc1ncnc2c1ncn2[C@@H]1O[C@H](COP(=O)(O)OP(=O)(O)OP(=O)(O)O)[C@@H](O)[C@H]1O [ATP],effectiveness as nucleoside-5'-triphosphate,acyl-CoA synthetase I [5],effective
CC(=O)NCCS [N-Acetylcysteamine],utilization as acyl acceptor,acyl-CoA synthetase I [2],Not utilized
CCCCCCCCCCCC(=O)O [Lauric acid],Activity (μmol acyl-CoA/min.),acyl-CoA synthetase [1],1.0 μmol acyl-CoA/min.
[Mg+2] [Mg^++],activation or inhibition of the enzyme,acyl-CoA synthetase [4],activator; also recorded: activated
CC(C)(CO)[C@@H](O)C(=O)NCCC(=O)NCCS [Pantetheine],Km,acyl-CoA synthetase I [2],2500 µM
same,Vmax,acyl-CoA synthetase I [2],57%
CC/C=C\C/C=C\C/C=C\CCCCCCCC(=O)O [Linolenic acid],Activity (μmol acyl-CoA/min.),acyl-CoA synthetase [1],22.0 μmol acyl-CoA/min.
CCCCCCCCCCCCCCCCCCCC(=O)O [Arachidic acid],Activity (μmol acyl-CoA/min.),acyl-CoA synthetase [1],0.6 μmol acyl-CoA/min.
CCCCCCCCCCCCCCC(=O)O [Pentadecanoic acid],Activity (μmol acyl-CoA/min.),acyl-CoA synthetase [1],18.0 μmol acyl-CoA/min.
[Cu+2] [Cu^++],activation or inhibition of the enzyme,acyl-CoA synthetase [4],inhibitor
same,inhibition of the enzyme action,acyl-CoA synthetase [4]; concentration of 15 mM,completely inhibits
Nc1ccn([C@@H]2O[C@H](COP(=O)(O)OP(=O)(O)OP(=O)(O)O)[C@@H](O)[C@H]2O)c(=O)n1 [CTP],effectiveness as nucleoside-5'-triphosphate,acyl-CoA synthetase I [5],essentially ineffective
N[C@@H](CS)C(=O)O [L-Cysteine],utilization as acyl acceptor,acyl-CoA synthetase I [2],Not utilized
CCCCCCCCCCCCCCCC(=O)O [Palmitic acid],Activity (μmol acyl-CoA/min.),acyl-CoA synthetase [1],20.4 μmol acyl-CoA/min.
Nc1nc2c(ncn2[C@@H]2O[C@H](COP(=O)(O)OP(=O)(O)OP(=O)(O)O)[C@@H](O)[C@H]2O)c(=O)[nH]1 [GTP],effectiveness as nucleoside-5'-triphosphate,acyl-CoA synthetase I [5],essentially ineffective
CCCCCCCC/C=C\CCCCCCCC(=O)O [Oleic acid],Activity (μmol acyl-CoA/min.),acyl-CoA synthetase [1],23.8 μmol acyl-CoA/min.
CC(C)(COP(=O)(O)O)[C@@H](O)C(=O)NCCC(=O)NCCS [4'-Phosphopantetheine],Km,acyl-CoA synthetase I [2],3300 µM
same,Vmax,acyl-CoA synthetase I [2],63%
Nc1ncnc2c1ncn2[C@@H]1O[C@H](COP(=O)(O)OP(=O)(O)NP(=O)(O)O)[C@@H](O)[C@H]1O [adenylyl imidodiphosphonate],effectiveness as nucleoside-5'-triphosphate,acyl-CoA synthetase I [5],essentially ineffective
CCCCC/C=C\C/C=C\C/C=C\C/C=C\CCCC(=O)O [Arachidonic acid],Activity (μmol acyl-CoA/min.),acyl-CoA synthetase [3],1.3 μmol acyl-CoA/min.
CCCCC/C=C\C/C=C\CCCCCCCC(=O)O [Linoleic acid],Activity (μmol acyl-CoA/min.),acyl-CoA synthetase [1],19.7 μmol acyl-CoA/min.
O=C(O)CCCCCCCCCCCCCCCO [16-Hydroxypalmitic acid],effectiveness as substrate of the enzyme,acyl-CoA synthetase [1],essentially ineffective
same,Activity (μmol acyl-CoA/min.),acyl-CoA synthetase [1],1.5 μmol acyl-CoA/min.
O=c1ccn([C@@H]2O[C@H](COP(=O)(O)OP(=O)(O)OP(=O)(O)O)[C@@H](O)[C@H]2O)c(=O)[nH]1 [UTP],effectiveness as nucleoside-5'-triphosphate,acyl-CoA synthetase I [5],essentially ineffective
CCCCCCCCCCCCC(=O)O [Tridecanoic acid],Activity (μmol acyl-CoA/min.),acyl-CoA synthetase [3],1.3 μmol acyl-CoA/min.
CC(C)(COP(=O)(O)OP(=O)(O)OC[C@H]1O[C@@H](n2cnc3c2ncn2ccnc32)[C@H](O)[C@@H]1OP(=O)(O)O)[C@@H](O)C(=O)NCCC(=O)NCCS [1:^6 N-Etheno-CoA],Km,acyl-CoA synthetase I [2],500 µM
same,Vmax,acyl-CoA synthetase I [2],40%
"Nc1ncnc2c1ncn2[C@@H]1O[C@H](COP(=O)(O)OP(=O)(O)CP(=O)(O)O)[C@@H](O)[C@H]1O [adenylyl (β,γ-methylene)diphosphonate]",effectiveness as nucleoside-5'-triphosphate,acyl-CoA synthetase I [5],essentially ineffective
CCCCCCCCCCCCCCCCCCC(=O)O [Nonadecanoic acid],Activity (μmol acyl-CoA/min.),acyl-CoA synthetase [1],1.7 μmol acyl-CoA/min.
CC(C)(COP(=O)(O)OP(=O)(O)OC[C@H]1O[C@@H](n2cnc3c(N)ncnc32)[C@H](O)[C@@H]1O)[C@@H](O)C(=O)NCCC(=O)NCCS [Dephospho-CoA],Km,acyl-CoA synthetase I [2],110 µM
same,Vmax,acyl-CoA synthetase I [2],70%
αATP,effectiveness as nucleoside-5'-triphosphate,acyl-CoA synthetase I [5],effective
same,activity relative to that measured with ATP,acyl-CoA synthetase I [5]; nucleotide 7.5 mM,78%
same,activity relative to that measured with ATP,acyl-CoA synthetase I [5]; nucleotide 15 mM,61%
αTTP,effectiveness as nucleoside-5'-triphosphate,acyl-CoA synthetase I [5],essentially ineffective
CCCCCC/C=C\CCCCCCCC(=O)O [Palmitoleic acid],Activity (μmol acyl-CoA/min.),acyl-CoA synthetase [3],19.8 μmol acyl-CoA/min.
N[C@@H](CCC(=O)N[C@@H](CS)C(=O)NCC(=O)O)C(=O)O [Glutathione],utilization as acyl acceptor,acyl-CoA synthetase I [2],Not utilized
B1,specific activity,[6],106 mU/mg protein
